Measured values from publication PMC11747885, “Potent inhibitors of the human RNA ligase Rlig1 highlights its role in RNA integrity maintenance under oxidative cellular stress” (Chemical Science, 2025).
pEC50, pIC50: −log10 of the molar value. Where “and” joins values, the source holds several entries; their conditions need not be identical. Equal values may be shown once. Entries after “also recorded” stand apart in the source; their conditions may differ. Marks after values point to notes of the source that are not given here.

Columns and labels:
in vitro = conditions: human
[1] = Cell viability assay of HEK293 cells treated with inhibitors and menadione; assay type: cell-based, human; conditions: human, HEK293 cells, w/o Menadione; for viability at 7.5 µM: 7.5 µM compound; for viability at 15 µM: 15 µM compound; for viability at 30 µM: 30 µM compound; for viability at 60 µM: 60 µM compound
HEK293 cells [2] = assay: as above; assay type: cell-based, human; conditions: for Mean Diff, (Predicted (LS) mean diff,) w/o menadione - w menadione: 2 way ANOVA, Šídák's multiple comparisons test, normalised viability
Rlig1-AMP = biological target: T1, Rlig1-AMP (Homo sapiens, UniProt Q8N999); assay: Radioactive RNA ligation assay (hit validation, 10 µM test and IC50 determination); assay type: biochemical; conditions: for inhibition of Rlig1-AMP ligation (urea-PAGE): 10 μM compound, 500 nM Rlig1-AMP, 20 min 37 °C; for HillSlope (best-fit value) / Span (best-fit value) / pIC50 / LogIC50 (best-fit value): four-parameter fit; for pIC50: n = 3, read-out: IC50 (best-fit value); for inhibition at 30 µM: log Compound [µM] 1.47712; for LogIC50 (best-fit value): log of µM; for Bottom (best-fit value) / Top (best-fit value): log(inhibitor) vs. response, variable slope (four parameters)
T1 construct: made in house; host or cells: E. coli BL21 (DE3), pET15b-Rlig1

HEK293 cells [3] = assay: Cell viability assay of HEK293 cells treated with inhibitors (CellTiter-Glo); conditions: for cytotoxicity (in words) / pEC50: HEK293, 24 h; for cytotoxicity (in words): up to 30 μM; for IC50 (Figure 3D: EC50 values for plot; log(inhibitor) vs. response -- Variable slope (four parameters)) / LogIC50 (log(inhibitor) vs. response -- Variable slope (four parameters)): HEK293 cell viability, fit per plate (3 plates, 4 technical replicates each); for IC50 (Figure 3D: EC50 values for plot; log(inhibitor) vs. response -- Variable slope (four parameters)): highest tested concentration 30 µM; for LogIC50 (log(inhibitor) vs. response -- Variable slope (four parameters)): log of [µM]; for pEC50: Homo sapiens
[4] = 20240508 plate 012, DMSO Ko no Mendione = 100
[5] = 20240508 plate 013, DMSO Ko no Mendione = 100
[6] = 20240515 plate 014, DMSO Ko no Mendione = 100
[7] = 20240515 plate 015, DMSO Ko no Mendione = 100
[8] = replicates I-III, read-out: percentage inhibition (dose response curve for IC50)

T1 sequence (Q8N999 whole entry): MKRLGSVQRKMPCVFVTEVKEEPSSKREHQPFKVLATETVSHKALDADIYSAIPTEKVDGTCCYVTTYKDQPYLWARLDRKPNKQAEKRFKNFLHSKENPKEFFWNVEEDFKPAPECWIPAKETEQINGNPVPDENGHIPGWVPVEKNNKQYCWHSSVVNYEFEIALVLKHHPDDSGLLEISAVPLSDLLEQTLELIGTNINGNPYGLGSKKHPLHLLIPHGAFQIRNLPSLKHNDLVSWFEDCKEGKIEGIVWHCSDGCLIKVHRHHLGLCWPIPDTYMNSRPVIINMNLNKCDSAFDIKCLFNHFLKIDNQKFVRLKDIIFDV

Nc1cc(Nc2ccc(NC(=O)c3ccc(Nc4ccnc5ccccc45)cc3)cc2)ccn1 [Compound 36]
viability at 24 h, 0.234375 µM (in vitro): 106%
viability at 24 h, 0.46875 µM (in vitro): 99.9%
viability at 24 h, 0.9375 µM (in vitro): 104%
viability at 24 h, 1.875 µM (in vitro): 99.2%
viability at 24 h, 3.75 µM (in vitro): 93.6%
viability at 24 h, 7.5 µM (in vitro): 93.9%
viability at 24 h, 15 µM (in vitro): 86.8%
viability at 24 h, 30 µM (in vitro): 90.4%
viability at 7.5 µM [1, 4]: 91%
viability at 7.5 µM [1, 5]: 101%
viability at 7.5 µM [1, 6]: 96%
viability at 7.5 µM [1, 7]: 89%
viability at 15 µM [1, 4]: 98.9%
viability at 15 µM [1, 5]: 99.3%
viability at 15 µM [1, 6]: 94.8%
viability at 15 µM [1, 7]: 94.9%
viability at 30 µM [1, 4]: 85.2%
viability at 30 µM [1, 5]: 98.7%
viability at 30 µM [1, 6]: 89.7%
viability at 30 µM [1, 7]: 81.9%
viability at 60 µM [1, 4]: 82.1%
viability at 60 µM [1, 5]: 89.4%
viability at 60 µM [1, 6]: 88.4%
viability at 60 µM [1, 7]: 79.5%
Mean Diff, (Predicted (LS) mean diff,) w/o menadione - w menadione (HEK293 cells [2]; 7.5 µM compound): 8.308
Cell viability raw signal, technical replicates (HEK293 cells [2]; 7.5 µM compound, w Menadione (40µM), 20240508 plate 012): 27030 and 23198 and 28223 and 26549
Cell viability raw signal, technical replicates (HEK293 cells [2]; 7.5 µM compound, w Menadione (40µM), 20240508 plate 013): 27603 and 23558 and 27792 and 26913
Cell viability raw signal, technical replicates (HEK293 cells [2]; 7.5 µM compound, w Menadione (40µM), 20240515 plate 014): 28096 and 25755 and 28850 and 30838
Cell viability raw signal, technical replicates (HEK293 cells [2]; 7.5 µM compound, w Menadione (40µM), 20240515 plate 015): 27895 and 33778 and 30188 and 31212
Cell viability raw signal, technical replicates (HEK293 cells [2]; 7.5 µM compound, w/o Menadione, 20240508 plate 012): 385210 and 396370 and 371980 and 372320
Cell viability raw signal, technical replicates (HEK293 cells [2]; 7.5 µM compound, w/o Menadione, 20240508 plate 013): 405510 and 393590 and 402690 and 387370
Cell viability raw signal, technical replicates (HEK293 cells [2]; 7.5 µM compound, w/o Menadione, 20240515 plate 014): 380800 and 387250 and 402000 and 397370
Cell viability raw signal, technical replicates (HEK293 cells [2]; 7.5 µM compound, w/o Menadione, 20240515 plate 015): 356280 and 367960 and 366010 and 366080
Mean Diff, (Predicted (LS) mean diff,) w/o menadione - w menadione (HEK293 cells [2]; 15 µM compound): 17.8
Cell viability raw signal, technical replicates (HEK293 cells [2]; 15 µM compound, w Menadione (40µM), 20240508 plate 012): 22111 and 21413 and 21368 and 22937
Cell viability raw signal, technical replicates (HEK293 cells [2]; 15 µM compound, w Menadione (40µM), 20240508 plate 013): 69935* and 23670 and 27045 and 22274
Cell viability raw signal, technical replicates (HEK293 cells [2]; 15 µM compound, w Menadione (40µM), 20240515 plate 014): 28312 and 27245 and 29168 and 29878
Cell viability raw signal, technical replicates (HEK293 cells [2]; 15 µM compound, w Menadione (40µM), 20240515 plate 015): 27690 and 32043 and 28425 and 26586
Mean Diff, (Predicted (LS) mean diff,) w/o menadione - w menadione (HEK293 cells [2]; 30 µM compound): 11.65
Cell viability raw signal, technical replicates (HEK293 cells [2]; 30 µM compound, w Menadione (40µM), 20240508 plate 012): 24245 and 20350 and 24935 and 20723
Cell viability raw signal, technical replicates (HEK293 cells [2]; 30 µM compound, w Menadione (40µM), 20240508 plate 013): 21997 and 20914 and 24666 and 21857
Cell viability raw signal, technical replicates (HEK293 cells [2]; 30 µM compound, w Menadione (40µM), 20240515 plate 014): 26699 and 30187 and 27245 and 26622
Cell viability raw signal, technical replicates (HEK293 cells [2]; 30 µM compound, w Menadione (40µM), 20240515 plate 015): 24014 and 26245 and 23994 and 40225
Cell viability raw signal, technical replicates (HEK293 cells [2]; 30 µM compound, w/o Menadione, 20240508 plate 012): 348650 and 347840 and 366110 and 365510
Mean Diff, (Predicted (LS) mean diff,) w/o menadione - w menadione (HEK293 cells [2]; 60 µM compound): 4.361
Cell viability raw signal, technical replicates (HEK293 cells [2]; 60 µM compound, w Menadione (40µM), 20240508 plate 012): 158210* and 163010* and 19082* and 18545*
Cell viability raw signal, technical replicates (HEK293 cells [2]; 60 µM compound, w Menadione (40µM), 20240508 plate 013): 166210* and 174600* and 20028* and 18681*
Cell viability raw signal, technical replicates (HEK293 cells [2]; 60 µM compound, w Menadione (40µM), 20240515 plate 014): 33336 and 33031 and 28059 and 24828
Cell viability raw signal, technical replicates (HEK293 cells [2]; 60 µM compound, w Menadione (40µM), 20240515 plate 015): 185100* and 184480* and 111650* and 66878*
Cell viability raw signal, technical replicates (HEK293 cells [2]; 60 µM compound, w/o Menadione, 20240508 plate 012): 344220 and 331510 and 355900 and 344190
Cell viability raw signal, technical replicates (HEK293 cells [2]; 60 µM compound, w/o Menadione, 20240508 plate 013): 348460 and 354210 and 355750 and 353860
Cell viability raw signal, technical replicates (HEK293 cells [2]; 60 µM compound, w/o Menadione, 20240515 plate 014): 336500 and 373330 and 357790 and 375230
Cell viability raw signal, technical replicates (HEK293 cells [2]; 60 µM compound, w/o Menadione, 20240515 plate 015): 321900 and 321160 and 330420 and 326560
inhibition of Rlig1-AMP ligation (urea-PAGE) (Rlig1-AMP): Ligation was inhibited; also recorded: fully inhibited
HillSlope (best-fit value) (Rlig1-AMP): 3.369
Span (best-fit value) (Rlig1-AMP): 96.63
pIC50 (Rlig1-AMP): 5.41
inhibition at 30 µM (Rlig1-AMP; [8]): 100%
inhibition at 0.9375 µM (Rlig1-AMP; log Compound [µM] -0.0280287, replicates I-III, read-out: percentage inhibition (dose response curve for IC50)): 5.58%
inhibition at 0.46875 µM (Rlig1-AMP; log Compound [µM] -0.329059, replicates I-III, read-out: percentage inhibition (dose response curve for IC50)): 2.58%
LogIC50 (best-fit value) (Rlig1-AMP): 0.5866
Bottom (best-fit value) (Rlig1-AMP): 4.368
Top (best-fit value) (Rlig1-AMP): 101
cytotoxicity (in words) (HEK293 cells [3]): no detectable cytotoxicity
IC50 (Figure 3D: EC50 values for plot; log(inhibitor) vs. response -- Variable slope (four parameters)) (HEK293 cells [3]): 2607.3 µM and 1652.85 µM and 299.495 µM
LogIC50 (log(inhibitor) vs. response -- Variable slope (four parameters)) (HEK293 cells [3]): 3.416 and 3.218 and 2.476
pEC50 (HEK293 cells [3]): < 4.52

Cc1cc(Nc2ccc(NC(=O)c3ccc(Nc4ccnc5[nH]ccc45)cc3)cc2)nc(N)n1 [Compound 46]
viability at 24 h, 0.234375 µM (in vitro): 104%
viability at 24 h, 0.46875 µM (in vitro): 98.9%
viability at 24 h, 0.9375 µM (in vitro): 97.1%
viability at 24 h, 1.875 µM (in vitro): 96.8%
viability at 24 h, 3.75 µM (in vitro): 94.8%
viability at 24 h, 7.5 µM (in vitro): 64.8%
viability at 24 h, 15 µM (in vitro): 23.1%
viability at 24 h, 30 µM (in vitro): 7.96%
inhibition of Rlig1-AMP ligation (urea-PAGE) (Rlig1-AMP): Ligation was inhibited; also recorded: inhibited ligase activity
HillSlope (best-fit value) (Rlig1-AMP): 6.864
Span (best-fit value) (Rlig1-AMP): 90.69
pIC50 (Rlig1-AMP): 5.15
inhibition at 30 µM (Rlig1-AMP; [8]): 100%
LogIC50 (best-fit value) (Rlig1-AMP): 0.8514
Bottom (best-fit value) (Rlig1-AMP): 7.468
Top (best-fit value) (Rlig1-AMP): 98.16
cytotoxicity (in words) (HEK293 cells [3]): comparatively high cytotoxicity
IC50 (Figure 3D: EC50 values for plot; log(inhibitor) vs. response -- Variable slope (four parameters)) (HEK293 cells [3]): 8.158 µM and 9.993 µM and 11.5211 µM
LogIC50 (log(inhibitor) vs. response -- Variable slope (four parameters)) (HEK293 cells [3]): 0.9116 and 0.9997 and 1.0615
pEC50 (HEK293 cells [3]): 5.03
